In patent publication US12617817B2, “Carrier peptide fragment and use thereof” (TOAGOSEI CO., LTD., priority 2020, dated 2026):
FAM = fluorescein amidite (fluorescent dye, FAM)

Test system: HeLa cells
Assay: Evaluating cell penetrating ability by flow cytometry (FAM fluorescence) in HeLa cells
Type: cell-based, human
Conditions: for MFI (mean fluorescent intensity): additive 10 μM, 0.5% DMSO, 20 hours incubation at 37° C., flow cytometry FL2 detector, average of triplicate; for shift of flow cytometry histogram on the X-axis (fluorescent intensity) in comparison with Example 3 (only FAM): FIG. 1
Procedure: The cell penetrating ability of sample 1 and sample 2 was evaluated using HeLa cells (cell line established from human cervical cancer cells). In Table 2, Example 1 indicates a test of addition of sample 1 to a culture solution of HeLa cells, Example 2 indicates a test of addition of sample 2, Example 3 indicates a test of addition of FAM diluted with DMSO, and Example 4 indicates a test of addition of DMSO only.
HeLa cells were cultured in an ordinary culture medium, DMEM (Dulbecco's modified Eagle's medium, manufactured by Fuji Film Wako Pure Chemical Industries, Cat. No. 043-30085) containing 10% FBS (fetal bovine serum).
HeLa cells adhering to the culture plate were washed with PBS, 0.25% trypsin/EDTA solution was added, and the cells were incubated for 3 minutes at 37° C. After incubation, the same DMEM medium containing 10% FBS was added to deactivate the trypsin, and the cells were precipitated by 5 minutes of centrifugation at 150×g. The supernatant produced by centrifugation was removed, and the same DMEM containing 10% FBS was added to the precipitate (cell pellet) to prepare an approximately 1×10^5 cells/mL cell suspension. 2 mL of the cell suspension was added to the wells of a commercial 6-well plate (Iwaki microplate commercially available from AGC techno glass Co., Ltd) to seed the cells at a rate of approximately 2×10^5 cells/well. This was then cultured for 3 hours at 37° C. under conditions of 5% CO2, causing the cells to adhere to the bottom of the wells. Because the cell penetrating ability evaluation is performed in triplicate, cells were seeded in 3 wells for the test of Example 1, and the following operations were performed on each well.
Next, the above 2 mM sample solution 1 was diluted with the above DMEM containing 10% FBS to prepare a sample solution 1 in which the concentration of the sample 1 was 20 μM. 1 mL of the culture supernatant was removed from each well after the 3 hours of culture, and 1 mL of 20 μM sample solution 1 was added to the well so that the sample 1 concentration of the culture solution in the well was 10 μM and the DMSO concentration was 0.5%. This was then incubated for 20 hours at 37° C. under conditions of 5% CO2. After this 20-hour incubation, the culture supernatant was removed from the well, and the cells in the well were washed twice with 1 mL of PBS. 200 μL of 0.25% trypsin/EDTA solution was then added to the well, and the cells were incubated for 3 minutes at 37° C. After this incubation, 400 μL of the above DMEM containing 10% FBS was added to the well to deactivate the trypsin, after which the cell suspension in the well was transferred to a tube, and the cells were collected. 600 μL of PBS was then added to each well to wash the well. The PBS in the well was then transferred to the above tube to collect the cells remaining in the well in the tube. This tube was centrifuged for 5 minutes under conditions of 210×g at 4° C. After centrifugation the supernatant was removed, and the precipitate (cell pellet) was suspended (washed) in 1 mL of PBS and centrifuged under the same conditions. This operation was repeated twice to remove the supernatant and obtain cells (a cell pellet) that had been cultured in medium containing the sample 1.
The cells (cell pellet) obtained above were analyzed by flow cytometry to assess the cell penetrating ability of the sample 1. A flow cytometer (On-Chip Biotechnologies Co., Ltd.) was used for the analysis.
The cell pellet obtained above was suspended in 50 μL of PBS for purposes of this analysis. A further 50 μL of 2× sample buffer for flow cytometry was added to this suspension to prepare a cell suspension for analysis.
Gating was performed with the flow cytometer based on forward scatter (FSC) and side scatter (SSC), a gate was set for the cell population under analysis, and the cell population within this gate was measured for fluorescent intensity. Analysis was performed so that the cell population composed of at least 5,000 cells. […]

In the case of 5(6)-carboxyfluorescein [Example 3], the “MFI (mean fluorescent intensity)” value is reported as 6.

“FAM-KKRTLRKNDRKKR-CONH2 ({FAM}-KKRTLRKNDRKKR-NH2) [Example 2]” was tested, and the “shift of flow cytometry histogram on the X-axis (fluorescent intensity) in comparison with Example 3 (only FAM)” value (10 μM, 20 hours) was “shifted to the right” and the “MFI (mean fluorescent intensity)” value was 15.5.

In the case of “FAM-KKRTLRKSNRKKR-CONH2 ({FAM}-KKRTLRKSNRKKR-NH2) [Example 1]”, the “shift of flow cytometry histogram on the X-axis (fluorescent intensity) in comparison with Example 3 (only FAM)” value (10 μM, 20 hours) is reported as “shifted to the right”, the “efficiency (cell penetrating ability), times higher than Example 2, from MFI values” (10 μM, 20 hours, comparison of MFI of Example 1 with Example 2) is reported as 4 times and the “MFI (mean fluorescent intensity)” value is reported as 62.
